Consider two compounds from patent US20150164867A1, “METHODS OF IMPROVING LONG-TERM SURVIVAL AND REDUCING HOSPITALIZATION READMISSION RATES FOR SUBJECTS SUFFERING FROM HEPATIC ENCEPHALOPATHY” (Salix Pharmaceuticals, Ltd, priority 2012, published 2015).

Data set [1] relates to patients admitted for overt HE. The experiment in a line: Chart review of survival outcomes in patients admitted for overt HE. The class given is in vivo, human. The settings on record: for Survival Rates, One Year / Survival Rates, Six Months / Survival Rates, Three Years: overt HE patients; for Survival Rates, One Year: one year after discharge; for Survival Rates, Six Months: six months after discharge, RFX 1200 then 1100 mg/day, LAC 30-120 cc/day; for Survival Rates, Three Years: three years after discharge. From the text: The medical charts of outpatient and hospitalized patients admitted for overt HE were examined over a 137-month (about an 11.5-year) window. Information collected included gender, age, ethnicity, post discharge HE management protocol, HE hospitalization number (frequency) and time (days) to transplant or death. […] The lactulose dose (LAC) was 30-120 cc/day, adjusted to acquire two to three loose to soft bowel movements. Time from discharge to death or transplant was reported.
In the study, 185 patients were identified, 106 of which were males, 79 or which were females. The median age was 48.5 years (range: 28-72 years). The ethnic group breakdown was as follows: 66% Caucasian, 12% African American, 18% Hispanic, 4% Other. The mean MELD score was 18.5 points (range: 12-40).

Data set [2] deals with patients admitted for overt HE. As to the kind of experiment: Chart review of hospital readmission in cirrhotic patients with overt HE. The class given is in vivo, human. From the text:
The medical charts of outpatient and hospitalized patients admitted for overt HE were examined over a 137-month (about an 11.5-year) window. Information collected included gender, age, ethnicity, MELD score, post discharge HE management protocol, HE hospitalization number (frequency), time to readmission (days) and health insurance coverage. All patients suffering from infection, renal failure, gastrointestinal bleeding or […] were excluded. Group one consisted of patients discharged with lactulose (LAC) treatment. Group two consisted of patients discharged on rifaximin (RFX) treatment. Group three consisted of patients discharged on rifaximin treatment combined with lactulose treatment (RFX/LAC). […] The lactulose dose (LAC) was 30-120 cc/day, adjusted to acquire two to three loose to soft bowel movements. Time from discharge to readmission was measured. All patients were required to have a follow up visit after discharge and maintain family support and employment. Patients were broken down into compliant and non-compliant groups with outpatient follow-up. Eighty-seven (87) patients were identified as compliant, while forty-nine (49) patients were identified as non-compliant. In the compliant group, there were 51 males and 36 females, with an age range of between 32 and 68 years. The ethnic group breakdown for the compliant group was as follows: 66% Caucasian, 14% African American, 17% Hispanic and 3% other. The mean MELD score of the compliant group was 12.5 points (range: 8-17). In the non-compliant group, there were 29 males and 20 females, with an age range of between 28 and 66 years. The ethnic group breakdown for the non-compliant group was as follows: 64% Caucasian, 18% African American and 18% Hispanic. The mean MELD score of the non-compliant group was 11.5 points (range: 6-18).

Data set [3] deals with compensated cirrhotic patients with SHE. As to the kind of experiment: Chart review of daily caloric intake in compensated cirrhotic patients with subclinical hepatic encephalopathy. It counts as in vivo, human. From the text: The medical charts were reviewed for non-hospitalized patients with compensated cirrhosis with and without the diagnosis of subclinical hepatic encephalopathy. […] All patients were reported to be at baseline Conn score Grade 0-1 HE, and employment status was identified. Information collected included; gender, age, ethnicity, weight/height, exercise and employment status, and daily calorie counts for 14 days. Daily caloric intake was registered with food consumption logs by patients and family. Normal caloric intake was considered at 1600 to 2200 calories/day depending upon dietary requirements. The daily caloric totals were conducted with the Calorie Smart calculator. […] There were 64 patients involved in the study: 29 females, 35 males, age (range 19-68), ethnicity (81% Caucasian, 8% African American, 8% Hispanic, 3% other), and mean MELD 8.5 points (range 6-13). There were no events of occult HE or hospitalizations throughout the review.

Data set [4] has as its system species of Staphylococcus, Streptococcus, Enterococcus, and Enterobacteriaceae. Conditions: in vitro data; cited from earlier work.
[5] abbreviates: relative to lactulose monotherapy or combined therapy.

Regarding `OC[C@H]1O[C@@H](O[C@@H]2[C@@H](CO)OC(O)(CO)[C@H]2O)[C@H](O)[C@@H](O)[C@H]1O` (mixture of isomers) [LAC, Lactulose], in data set [1], the “Survival Rates, One Year” value is 46%; the “Survival Rates, Six Months” value stood at 60%; the “Survival Rates, Three Years” value is on record as 29%. Moreover, the “number of hospital readmissions” value in data set [2] (compliant and non-compliant populations, comparison of LAC, RFX, RFX/LAC groups) was “highest”. Also, in data set [3], the adverse effect entry is on record as “bowel bloating culminating in a sensation of decreased appetite” and the “caloric intake (in words)” value is given as “marked decrease”.
As to `CO[C@H]1/C=C/O[C@@]2(C)Oc3c(C)c(O)c4c(O)c(c5c(nc6cc(C)ccn65)c4c3C2=O)NC(=O)/C(C)=C\C=C\[C@H](C)[C@H](O)[C@@H](C)[C@@H](O)[C@@H](C)[C@H](OC(C)=O)[C@@H]1C` [RFX, Rifaximin], in data set [1] (addition of rifaximin, alone or in combination with lactulose, overt HE), the “short- and long-term survival” value is recorded as “improvement”. In data set [1], the “Survival Rates, One Year” value is 63%; the “Survival Rates, Six Months” value is on record as 76%; the “Survival Rates, Three Years” value turned out to be 51%. For the same compound, in data set [2] (setting [5]), the frequency of hospitalizations entry is listed as “less frequent” and the “time to hospital readmission” value was “greater”. For the same compound, the “caloric intake (in words)” value in data set [3] is “appeared to maintain daily caloric intake”. In data set [4], the “in vitro antibacterial activity” value is listed as “active”.
